Measurements taken from patent publication US7871987B2, “Ester derivatives of ascorbic and 2-keto acid saccharides” (Dow Corning Corporation, priority 2004, dated 2011).
“And” between values parts separate entries of the source, which are not always exact repeats. Equal entries are not always repeated.

How the values were obtained:
[1] = Dispersibility in carriers (caprylic/capric triglyceride, cyclopentasiloxane, deionized water); type: physicochemical
Method: a) Approximately 7.2 g of a sample of a material of the present invention comprising an undecyl ascorbate group on one end of the short chain dimethylsiloxane (Formula=Si(CH3)3-[Si(CH3)2]8—[CH2]10—COO-Ascorbate), with a calculated molecular weight of 1082) was weighed into a glass vial. Liponate CG (INCI name: caprylic/capric triglyceride) was added to the vial to bring the net weight to 20 g. The vial was warmed in a water bath set at 50° C. […] A sample of ascorbyl palmitate obtained from DSM was also tested for dispersibility in Liponate CG. Several concentrations were tested. The lowest concentration tested was made by weighing approximately 2.3 g of ascorbyl palmitate into a glass vial and then adding caprylic/capric triglyceride to bring the net weight to 20 g. […] The silicone was added to the vial to bring the net weight to 20 g. […] This mixture thickened upon cooling to room temperature. To determine if the mixture was a stable dispersion or an unstable suspension, the mixture was centrifuged in a bench top laboratory centrifuge at 3000 rpm for approximately 30 minutes. […] The amount of white material was small (much less than the amount of siloxane undecyl ascorbate that was used) and it was later determined that the white material was most likely unreacted ascorbic acid. A sample of ascorbyl palmitate obtained from DSM was tested for dispersibility in Dow Corning® 245 Fluid. Several concentrations were tested. The lowest concentration tested was made by weighing approximately 2.3 g of ascorbyl palmitate into a glass vial and then adding Dow Corning® 245 Fluid to bring the net weight to 20 g. […] Deionized water was added to bring the total net weight to 3.5 g. The vial was placed in a water bath set at 60° C. and the disiloxane material began to disperse after a few minutes. The vial was pulled out of the water bath periodically over the next 10-15 minutes. […] Upon cooling the vial was examined to determine if all of the test material had been dispersed. It was difficult to tell due to the hazy appearance of the sample. The experiment was repeated with approximately 0.17 of the disiloxane diluted to 3.5 g with deionized water. […] Ascorbyl palmitate obtained from DSM was tested for dispersibility in deionized water.

[2] = system: Melanoderm tissue model MEL 300 A; test: Melanin content / skin lightening assay in MelanoDerm tissue model; type: cell-based, human; settings: for Melanin concentration vs. water: Day 10, after 6 applications; for Melanin Concentration at Day 10 (Avg.): after 6 applications, 10 μL in DMI (kojic acid 25 μL, 1% in water)
Description: (§1) This example illustrates cell viability properties and efficacy of skin lightening formulations according to the present invention. For purposes of these examples, DP2 and DP15 both refer to a bis-ascorbyl ester of a (10-carboxydecyl)-terminated dimethylsiloxane, but with the former having two degrees of polymerization, and the latter having an average of 15 degrees of polymerization (15+/−5). In particular, three formulations according to the present invention, water (a negative control), 1% kojic acid (Sigma, Wis.) in water (positive control), and 2.3% ascorbyl palmitate in DMI (dimethyl isosorbide from Uniqema Americas, representative of a currently commercially available skin-lightening compound), were assayed and compared for cell viability and skin lightening efficacy (see Table 4). The assays were carried out using Melanoderm tissue model MEL 300 A cell line (MelanoDerm™ tissue model available from MatTek, Ashland, Mass.). This melanoderm model consists of normal, human-derived epidermal keratinocytes and melanocytes that have been co-cultured to form a multilayer, highly differentiated model of human epidermis.
Table 6 (see FIG. 4(a)) sets forth the […] after 6 applications of each formulation as indicated. Melanin concentration (ug/ml) was lower (p<0.05) in the positive control (kojic acid) and in Ascorbyl palmitate, DP2, and DP2+ascorbic acid. Table 7 (see FIG. 4(b) also sets forth the melanocyte concentration on Day 10, after six applications of the test formulations. Melanin concentration (ug/ml) was higher (p<0.05) in DP2, with no difference from DP2+ascorbic acid or DPI 5. However, p value for DP15 had high variability and statistical difference was borderline (p=0.06)

[3] = system: Melanoderm tissue model MEL 300 A; test: Viability by MTT assay (MatTek MTT ET-50 protocol); type: cell-based, human; settings: for MTT reading (individual readings): listed as DP2/DMI
Description: as §1
Duplicate samples of each of the formulations in Table 4 were dosed and tested for 48 hours for cell viability by MTT assay (MatTek MTT ET-50 protocol). The volume of water and kojic acid used was 25 ul.

[4] = first duplicate sample, 10 uL dose, 48 hours
[5] = second duplicate sample, 10 uL dose, 48 hours
[6] = approximately 2.3 g brought to 20 g (lowest concentration), 50° C. to 90° C. for 20-30 minutes

For `C[Si](C)(CCCCCCCCCCC(=O)OCC(O)C1OC(=O)C(O)=C1O)O[Si](C)(C)CCCCCCCCCCC(=O)OCC(O)C1OC(=O)C(O)=C1O` (stereo not shown) [DP2, bis-ascorbyl ester of a (10-carboxydecyl)-terminated dimethylsiloxane], the “dispersibility in deionized water” value ([1]; approximately 0.17 diluted to 3.5 g, warmed in water bath) was “thinner, less hazy dispersion”, the “dispersibility in deionized water” value ([1]; approximately 0.35 g brought to 3.5 g, water bath 60° C.) was “thick hazy dispersion” and the “stability of dispersions in deionized water” value ([1]; both dispersions, no sign of separation or settling) was “stable for several weeks”. For the same compound, the “Melanin concentration vs. water” value ([2]; p<0.05) was “lower”, the “Melanin concentration vs. ascorbyl palmitate” value ([2]; Day 10, after six applications, p<0.05) was “higher” and the “Melanin Concentration at Day 10 (Avg.)” value [2] was 44.40 µg/mL. For the same compound, the cytotoxicity ([3]; 10 uL dose, in DMI) was “does not cause cytotoxicity”, the “Total average (MTT reading)” value ([3]; both duplicate samples, 10 uL dose, 48 hours) was 1.514 and the “% Viability (total average)” value ([3]; both duplicate samples, vs water, 10 uL dose, 48 hours) was 100.31%. For the same compound, the “Average (MTT reading)” value [3, 4] was 1.417, the “MTT reading (individual readings)” value [3, 4] was 1.433 and 1.401 and the “% Viability” value ([3]; first duplicate sample, vs water, 10 uL dose, 48 hours) was 91.24%. For the same compound, the cell viability ([3]; in DMI) was over 90%, the “Average (MTT reading)” value [3, 5] was 1.611 and the “MTT reading (individual readings)” value [3, 5] was 1.619 and 1.603. For the same compound, the “% Viability” value ([3]; second duplicate sample, vs water, 10 uL dose, 48 hours) was 109.93%.

With `O=c1cc(CO)occ1O` [Kojic Acid, kojic acid] the “Melanin concentration vs. water” value ([2]; p<0.05) was “lower” and the “Melanin Concentration at Day 10 (Avg.)” value [2] was 25.20 µg/mL.

With `CCCCCCCCCCCCCCCC(=O)OC[C@H](O)[C@H]1OC(=O)C(O)=C1O` [Ascorbyl Palmitate, Ascorbyl palmitate, reference compound] the “dispersibility in Dow Corning 245 Fluid (cyclopentasiloxane)” value [1, 6] was “would not disperse”, the “dispersibility in Liponate CG (caprylic/capric triglyceride)” value [1, 6] was “would not disperse” and the “dispersibility in deionized water” value ([1]; concentrations comparable to those tested for the disiloxane test material) was “not dispersible”. The “Melanin concentration vs. water” value ([2]; p<0.05) was “lower”, the “Melanin Concentration at Day 10 (Avg.)” value [2] was 34.14 µg/mL and the “% Viability (total average)” value ([3]; human, 48 h, 2.3 %) was 96.04%. For the same compound, the “Total average (MTT reading)” value ([3]; human, 48 h, 2.3 %) was 1.4495.
